Assay results published in the supplement of paper PMC11061612.

Columns and labels:
[1] = tested on: SW1088 (Low Grade Glioma); assay: combination Emax (second highest fraction inhibited in the dose matrix, 72 h); higher = more inhibition; extreme values may be limits of the assay
Method in brief: (§1)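 Bliss excess equals the observed combination effect minus the expected value EA + EB − EA·EB, where EA and EB are the effects of each agent alone. Combination Emax is the second-highest inhibition within the matrix. Inhibition was scaled from CellTiter-Glo 2.0 luminescence, with 0 set by vehicle wells and 1 by blank wells, after 72 hours of two-drug dosing of cells plated in 1536-well plates.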

[2] = tested on: KATOIII (Gastric Carcinoma); assay: as above
Method in brief: as §1

[3] = tested on: SW1990 (Pancreatic Carcinoma); assay: as above
Method in brief: as §1

ES7 (Ewing's Sarcoma) = assay: as above
Method in brief: as §1

[4] = tested on: NCI-H211 (Small Cell Lung Carcinoma); assay: as above
Method in brief: as §1

[5] = tested on: HT-29 (Colorectal Carcinoma); assay: as above
Method in brief: as §1

[6] = tested on: NALM-6 (B-Lymphoblastic Leukemia); assay: as above
Method in brief: as §1

[7] = tested on: SW1783 (Low Grade Glioma); assay: Bliss excess, mean over the matrix (fraction); higher = more synergy
Method in brief: as §1

[8] = tested on: KATOIII (Gastric Carcinoma); assay: as above
Method in brief: as §1

[9] = tested on: SW1990 (Pancreatic Carcinoma); assay: as above
Method in brief: as §1

[10] = tested on: COR-L95 (Small Cell Lung Carcinoma); assay: as above
Method in brief: as §1

[11] = tested on: MDA-MB-157 (Breast Carcinoma); assay: as above
Method in brief: as §1

[12] = tested on: U-266 (Plasma Cell Myeloma); assay: as above
Method in brief: as §1

[13] = tested on: OCI-AML2 (Acute Myeloid Leukemia); assay: as above
Method in brief: as §1

[14] = tested on: NCI-H211 (Small Cell Lung Carcinoma); assay: as above
Method in brief: as §1

[15] = tested on: LS-513 (Colorectal Carcinoma); assay: as above
Method in brief: as §1

[16] = tested on: NCI-H1299 (Non-Small Cell Lung Carcinoma); assay: as above
Method in brief: as §1

SN12C (Kidney Carcinoma) = assay: as above
Method in brief: as §1

[17] = tested on: NALM-6 (B-Lymphoblastic Leukemia); assay: as above
Method in brief: as §1

SK-N-FI (Neuroblastoma) = assay: as above
Method in brief: as §1

Row | SMILES | combination Emax [1] | combination Emax [2] | combination Emax [3] | combination Emax (ES7 (Ewing's Sarcoma)) | combination Emax [4] | combination Emax [5] | combination Emax [6] | Bliss excess [7] | Bliss excess [8] | Bliss excess [9] | Bliss excess [10] | Bliss excess [11] | Bliss excess [12] | Bliss excess [13] | Bliss excess [14] | Bliss excess [15] | Bliss excess [16] | Bliss excess (SN12C (Kidney Carcinoma)) | Bliss excess [17] | Bliss excess (SK-N-FI (Neuroblastoma))
1 | C[C@@H](Nc1cc(F)cc(F)c1)c1cc(C(=O)N(C)C)cc2c(=O)cc(N3CCOCC3)oc12 [AZD8186] + CC(=O)c1c(C)c2cnc(Nc3ccc(N4CCNCC4)cn3)nc2n(C2CCCC2)c1=O [Palbociclib] (first compound max 10 µM, 7x7, partner max 10 µM) | 0.724 | 0.356 | 0.267 | 0.724 | 0.754 | 0.562 | 0.833 | 0.0594 | 0.0615 | -0.0062 | -0.0215 | 0.0093 | -0.0285 | 0.132 | 0.2 | 0.0084 | 0.0316 | 0.0245 | 0.0084 | 0.0089
2 | C[C@@H](Oc1cc(-c2cnn(C3CCNCC3)c2)cnc1N)c1c(Cl)ccc(F)c1Cl [Crizotinib] + CC1=C(C(=CC=C1)Cl)NC(=O)C2=CN=C(S2)NC3=CC(=NC(=N3)C)N4CCN(CC4)CCO [Dasatinib] (first compound max 10 µM, 7x7, partner max 2 µM) | 0.829 | 0.731 | 0.255 | 0.883 | 0.964 | 0.881 | 0.942 | 0.103 | -0.0263 | -0.0312 | -0.0662 | -0.0052 | -0.0102 | -0.0271 | -0.0089 | -0.0485 | 0.123 | -0.0384 | 0.022 | -0.0425
3 | C[C@@H](Oc1cc(-c2cnn(C3CCNCC3)c2)cnc1N)c1c(Cl)ccc(F)c1Cl [Crizotinib] + Cn1cnc2c(F)c(Nc3ccc(Br)cc3Cl)c(C(=O)NOCCO)cc21 [Selumetinib] (first compound max 10 µM, 7x7, partner max 10 µM) | 0.596 | 0.588 | 0.158 | 0.818 | 0.943 | 0.98 | 0.905 | -0.0486 | -0.0081 | -0.0626 | -0.0955 | -0.0125 | -0.021 | -0.0036 | -0.0327 | -0.0167 | 0.0598 | -0.0062 | -0.0149 | 0.0321
4 | CS(=O)(=O)CCNCc1ccc(-c2ccc3ncnc(Nc4ccc(OCc5cccc(F)c5)c(Cl)c4)c3c2)o1 [Lapatinib] + Cn1cnc2c(F)c(Nc3ccc(Br)cc3Cl)c(C(=O)NOCCO)cc21 [Selumetinib] (first compound max 10 µM, 7x7, partner max 10 µM) | 0.349 | 0.523 | 0.465 | 0.559 | 0.876 | 0.958 | 0.847 | -0.0252 | -0.0223 | 0.0373 | -0.0382 | -0.0598 | 0.0347 | -0.0296 | 0.0084 | -0.054 | 0.0085 | -0.0375 | 0.021 | 0.0179
5 | CS(=O)(=O)CCNCc1ccc(-c2ccc3ncnc(Nc4ccc(OCc5cccc(F)c5)c(Cl)c4)c3c2)o1 [Lapatinib] + NC1(c2ccc(-c3nc4ccn5c(=O)[nH]nc5c4cc3-c3ccccc3)cc2)CCC1 [MK-2206] (first compound max 10 µM, 7x7, partner max 10 µM) | 0.624 | 0.44 | 0.256 | 0.938 | 0.944 | 0.95 | 0.957 | -0.0201 | 0.0226 | -0.003 | 0.0048 | -0.0057 | -0.016 | 0.0419 | 0.058 | -0.0396 | 0.0027 | -0.0236 | -0.0044 | -0.0027
6 | O=C(c1cc(Cc2n[nH]c(=O)c3ccccc23)ccc1F)N1CCN(C(=O)C2CC2)CC1 [Olaparib] + CC1(C)CCC(CN2CCN(c3ccc(C(=O)NS(=O)(=O)c4ccc(NCC5CCOCC5)c([N+](=O)[O-])c4)c(Oc4cnc5[nH]ccc5c4)c3)CC2)=C(c2ccc(Cl)cc2)C1 [Venetoclax] (first compound max 10 µM, 7x7, partner max 1 µM) | 0.136 | 0.412 | 0.179 | 0.95 | 0.99 | 0.115 | 0.965 | -0.0349 | -0.0146 | -0.0509 | 0.0791 | -0.0406 | 0.0388 | 0.0964 | 0.0865 | -0.0498 | -0.0527 | -0.0534 | 0.104 | -0.0527
7 | O=C(c1cc(Cc2n[nH]c(=O)c3ccccc23)ccc1F)N1CCN(C(=O)C2CC2)CC1 [Olaparib] + CN(CC[C@H](CSC1=CC=CC=C1)NC2=C(C=C(C=C2)S(=O)(=O)NC(=O)C3=CC=C(C=C3)N4CCC(CC4)[C@H](C5=CC=CC=C5C6=CC=C(C=C6)Cl)O)S(=O)(=O)C(F)(F)F)CCO [AZD4320] (first compound max 10 µM, 7x7, partner max 1 µM) | 0.147 | 0.37 | 0.328 | 0.969 | 1 | 0.104 | 0.974 | -0.0391 | -0.0047 | -0.0818 | 0.0593 | -0.0094 | -0.0187 | 0.041 | 0.0233 | -0.0326 | -0.0463 | -0.0401 | 0.0211 | -0.0374
8 | O=C(c1cc(Cc2n[nH]c(=O)c3ccccc23)ccc1F)N1CCN(C(=O)C2CC2)CC1 [Olaparib] + COc1nnc2ccc(N3CCC(c4ccc(OCCN5CCN(C)C(=O)[C@H]5C)cc4)CC3)nn12 [AZD5153] (first compound max 10 µM, 7x7, partner max 1 µM) | 0.392 | 0.4 | 0.195 | 0.944 | 0.992 | 0.658 | 0.911 | -0.0177 | -0.0584 | -0.0669 | -0.0488 | -0.0507 | -0.0332 | -0.02 | -0.0168 | -0.0628 | -0.0826 | -0.0222 | -0.0547 | -0.0577
9 | O=C(c1cc(Cc2n[nH]c(=O)c3ccccc23)ccc1F)N1CCN(C(=O)C2CC2)CC1 [Olaparib] + Cc1c2c(nn1C)CSCc1cc(n(C)n1)CSc1cc(c3ccccc3c1)OCCCc1c(C(=O)O)n(C)c3c-2c(Cl)ccc13 [AZD5991] (first compound max 10 µM, 7x7, partner max 1 µM) | 0.136 | 0.356 | 0.238 | 0.942 | 0.957 | 0.0739 | 0.74 | -0.0388 | -0.0852 | -0.0296 | -0.0514 | -0.0291 | -0.0244 | 0.0775 | 0.024 | -0.0082 | -0.0455 | -0.053 | -0.039 | -0.0321
10 | N#Cc1cnc(Nc2cc(NC[C@H]3CNCCO3)c(C(F)(F)F)cn2)cn1 [SRA737] + C=CCn1c(=O)c2cnc(Nc3ccc(N4CCN(C)CC4)cc3)nc2n1-c1cccc(C(C)(C)O)n1 [AZD1775] (first compound max 10 µM, partner max 1 µM) | 0.77 | 0.392 | 0.507 | 0.829 | 0.971 | 0.827 | 0.969 | 0.0153 | -0.0327 | -0.0149 | 0.0077 | 0.119 | 0.0474 | 0.071 | 0.169 | 0.0476 | 0.0448 | -0.0184 | 0.11 | 0.0703
11 | N#Cc1cnc(Nc2cc(NC[C@H]3CNCCO3)c(C(F)(F)F)cn2)cn1 [SRA737] + CCc1c2c(nc3ccc(O)cc13)-c1cc3c(c(=O)n1C2)COC(=O)[C@]3(O)CC [SN-38] (first compound max 10 µM, 7x7, partner max 0.3 µM) | 0.736 | 0.543 | 0.519 | 1 | 0.987 | 0.903 | 1 | -0.038 | -0.0046 | -0.0824 | -0.0191 | 0.0125 | 0.0402 | -0.0348 | -0.0649 | -0.114 | 0.0179 | -0.0485 | -0.0083 | -0.121
12 | N#Cc1cnc(Nc2cc(NC[C@H]3CNCCO3)c(C(F)(F)F)cn2)cn1 [SRA737] + O=c1[nH]cc(F)c(=O)[nH]1 [5-Fluorouracil] (first compound max 10 µM, 7x7, partner max 20 µM) | 0.691 | 0.565 | 0.515 | 0.82 | 0.8 | 0.696 | 0.896 | 0.0143 | -0.0805 | -0.0577 | -0.0218 | 0.0781 | 0.0562 | 0.0247 | 0.0823 | -0.0287 | -0.0191 | -0.0474 | 0.0117 | -0.0627
13 | Cc1nc(-c2cn3c(n2)-c2ccc(-c4cnn(C(C)(C)C(N)=O)c4)cc2OCC3)n(C(C)C)n1 [Taselisib] + O=C(Nc1ccc2[nH]nc(-c3ccncc3)c2c1)[C@@H]1CCN(CC(=O)N2CCN(c3ccc(-c4ncccn4)cc3)CC2)C1 [SCH772984] (first compound max 10 µM, 7x7, partner max 5 µM) | 0.72 | 0.583 | 0.655 | 0.726 | 0.55 | 0.965 | 0.752 | -0.0071 | -0.0189 | 0.0724 | -0.0479 | 0.0631 | 0.0774 | 0.132 | 0.126 | -0.0377 | 0.0654 | 0.0003 | 0.017 | 0.0465
14 | CC1(C)CCC(CN2CCN(c3ccc(C(=O)NS(=O)(=O)c4ccc(NCC5CCOCC5)c([N+](=O)[O-])c4)c(Oc4cnc5[nH]ccc5c4)c3)CC2)=C(c2ccc(Cl)cc2)C1 [Venetoclax] + CS(=O)(=O)CCNCc1ccc(-c2ccc3ncnc(Nc4ccc(OCc5cccc(F)c5)c(Cl)c4)c3c2)o1 [Lapatinib] (first compound max 1 µM, 7x7, partner max 10 µM) | 0.254 | 0.291 | 0.174 | 0.613 | 1 | 0.731 | 0.911 | -0.0232 | -0.0386 | -0.0384 | -0.0566 | -0.0549 | -0.0555 | 0.0327 | -0.0037 | -0.0203 | -0.0402 | -0.0179 | 0.0563 | -0.0126
